# Data from patent publication US3969521A, “Pharmaceutical compositions containing tetrahydroalstonine and method for treating circulation disorders” (Science Union et Cie, Societe Francaise de Recherche Medical, priority 1974, dated 1976).
# Entries after “also recorded” stand apart in the source; their conditions may differ.
# Key:
# brain blood circulation = test: Effect on the brain blood circulation and on the consumption of oxygen and glucose by the brain, anaesthetized dogs; assay type: in vivo, dog; set-up: O2 cap. = amount of oxygen supplied to the brain tissues / art. QO2 / QO2: unit not given here; settings: 100 mg/kg perorally
# Text: Effect of tetrahydroalstonine on the brain blood circulation and on the consumption of oxygen and of glucose by the brain.
# On arterial and venous blood sample the concentration of glucose has been determined enzymatically according to the method of hexokinase (C. Hennon and co-workers).
# The determination of the pressure of oxygene (PO2) has been carried out with a polarographic analyser and that of carbonic anhydride (PCO2) in the arterial or venous brain blood, using a Duo-Matic electrometer IL 123.
# femoral blood flow = test: Femoral blood flow, anaesthetized dogs; assay type: in vivo, dog; settings: 100 mg/kg perorally
# Description: Femoral blood flow was measured with an electromagnetic flowmeter (Statham).
# central nervous system = test: Effects on the central nervous system; assay type: in vivo
# [1] = test system: analgetic effect of Morphine; test: Analgetic effect of Morphine; settings: in vivo
compound,measurement,setting,value
COC(=O)C1=CO[C@@H](C)[C@@H]2CN3CCc4c([nH]c5ccccc45)[C@@H]3C[C@H]12 [Tetrahydroalstonine],concentration of oxygen in the brain capillars,brain blood circulation,increased
same,consumption of glucose by the brain,brain blood circulation,increase
same,consumption of oxygen per minute,brain blood circulation,increased
same,difference in concentration between arterial and venous oxygen,brain blood circulation,increased
same,partial pressure in brain venous oxygen (PO2 VC),brain blood circulation,decrease
same,Cerebral flow,brain blood circulation; 45 minutes (Table I),"89,8 ml/mn"
same,Concentration in capillary oxygen,brain blood circulation; 45 minutes (Table I),"9,3"
same,Concentration in oxygen/mn,brain blood circulation; 45 minutes (Table I),"12,8"
same,Consumption in glucose/mn,brain blood circulation; 45 minutes (Table I),"7,1"
same,G/O = consumption in glucose per mn / concentration in oxygen,brain blood circulation; 45 minutes (Table I),"0,6"
same,QO2,brain blood circulation; 45 minutes (Table I),"14,3"
same,Cerebral flow,brain blood circulation; 67 minutes (Table I),"92,4 ml/mn"
same,Concentration in capillary oxygen,brain blood circulation; 67 minutes (Table I),"8,7"
same,Concentration in oxygen/mn,brain blood circulation; 67 minutes (Table I),"12,4"
same,Consumption in glucose/mn,brain blood circulation; 67 minutes (Table I),"10,7"
same,G/O = consumption in glucose per mn / concentration in oxygen,brain blood circulation; 67 minutes (Table I),"0,9"
same,QO2,brain blood circulation; 67 minutes (Table I),"13,1"
same,Cerebral flow,brain blood circulation; 90 minutes (Table I),"95,8 ml/mn"
same,Concentration in capillary oxygen,brain blood circulation; 90 minutes (Table I),"8,5"
same,Concentration in oxygen/mn,brain blood circulation; 90 minutes (Table I),"12,4"
same,Consumption in glucose/mn,brain blood circulation; 90 minutes (Table I),"11,3"
same,G/O = consumption in glucose per mn / concentration in oxygen,brain blood circulation; 90 minutes (Table I),"1,0"
same,QO2,brain blood circulation; 90 minutes (Table I),"12,6"
same,Cerebral flow,brain blood circulation; 112 minutes (Table I),"90,6 ml/mn"
same,Concentration in capillary oxygen,brain blood circulation; 112 minutes (Table I),"8,4"
same,Concentration in oxygen/mn,brain blood circulation; 112 minutes (Table I),"11,5"
same,Consumption in glucose/mn,brain blood circulation; 112 minutes (Table I),"12,1"
same,G/O = consumption in glucose per mn / concentration in oxygen,brain blood circulation; 112 minutes (Table I),"1,1"
same,QO2,brain blood circulation; 112 minutes (Table I),"12,4"
same,Cerebral flow,brain blood circulation; 135 minutes (Table I),"84,8 ml/mn"
same,Concentration in capillary oxygen,brain blood circulation; 135 minutes (Table I),"8,5"
same,Concentration in oxygen/mn,brain blood circulation; 135 minutes (Table I),"11,4"
same,Consumption in glucose/mn,brain blood circulation; 135 minutes (Table I),"10,9"
same,G/O = consumption in glucose per mn / concentration in oxygen,brain blood circulation; 135 minutes (Table I),"1,2"
same,QO2,brain blood circulation; 135 minutes (Table I),"12,9"
same,CE p. 100 glucose,brain blood circulation; +45 min. (Table II),"8,22 p. 100"
same,DC = Cerebral blood flow,brain blood circulation; +45 min. (Table II),"90,0 ml/mn"
same,G/O,brain blood circulation; +45 min. (Table II),"1,08"
same,O2 /min.,brain blood circulation; +45 min. (Table II),"6,14"
same,O2 cap. = amount of oxygen supplied to the brain tissues,brain blood circulation; +45 min. (Table II),"5,05"
same,PO2 vc = partial pressure of venous oxygen in the brain,brain blood circulation; +45 min. (Table II),"28,50"
same,art. QO2,brain blood circulation; +45 min. (Table II),"14,16"
same,art. pH,brain blood circulation; +45 min. (Table II),"7,39"
same,arterial Q gluc.,brain blood circulation; +45 min. (Table II),900 mg
same,consumption in Gluc./min.,brain blood circulation; +45 min. (Table II),"6,66"
same,ΔH^+/ΔQO2,brain blood circulation; +45 min. (Table II),"-4,44"
same,ΔPCO2/ΔQO2,brain blood circulation; +45 min. (Table II),"109,97"
same,ΔQO2,brain blood circulation; +45 min. (Table II),"+6,82"
same,CE p. 100 glucose,brain blood circulation; +67 min. (Table II),"12,73 p. 100"
same,DC = Cerebral blood flow,brain blood circulation; +67 min. (Table II),"99,0 ml/mn"
same,G/O,brain blood circulation; +67 min. (Table II),"1,38"
same,O2 /min.,brain blood circulation; +67 min. (Table II),"8,40"
same,O2 cap. = amount of oxygen supplied to the brain tissues,brain blood circulation; +67 min. (Table II),"5,95"
same,PO2 vc = partial pressure of venous oxygen in the brain,brain blood circulation; +67 min. (Table II),"24,25"
same,art. QO2,brain blood circulation; +67 min. (Table II),"14,50"
same,art. pH,brain blood circulation; +67 min. (Table II),"7,425"
same,arterial Q gluc.,brain blood circulation; +67 min. (Table II),919 mg
same,consumption in Gluc./min.,brain blood circulation; +67 min. (Table II),"11,58"
same,ΔH^+/ΔQO2,brain blood circulation; +67 min. (Table II),"-6,75"
same,ΔPCO2/ΔQO2,brain blood circulation; +67 min. (Table II),"114,84"
same,ΔQO2,brain blood circulation; +67 min. (Table II),"+8,49"
same,CE p. 100 glucose,brain blood circulation; +90 min. (Table II),"11,70 p. 100"
same,DC = Cerebral blood flow,brain blood circulation; +90 min. (Table II),"112,5 ml/mn"
same,G/O,brain blood circulation; +90 min. (Table II),"1,20"
same,O2 /min.,brain blood circulation; +90 min. (Table II),"10,38"
same,O2 cap. = amount of oxygen supplied to the brain tissues,brain blood circulation; +90 min. (Table II),"6,07"
same,PO2 vc = partial pressure of venous oxygen in the brain,brain blood circulation; +90 min. (Table II),"21,75"
same,art. QO2,brain blood circulation; +90 min. (Table II),"14,25"
same,art. pH,brain blood circulation; +90 min. (Table II),"7,455"
same,arterial Q gluc.,brain blood circulation; +90 min. (Table II),949 mg
same,consumption in Gluc./min.,brain blood circulation; +90 min. (Table II),"12,49"
same,ΔH^+/ΔQO2,brain blood circulation; +90 min. (Table II),"-7,96"
same,ΔPCO2/ΔQO2,brain blood circulation; +90 min. (Table II),"111,05"
same,ΔQO2,brain blood circulation; +90 min. (Table II),"+9,23"
same,CE p. 100 glucose,brain blood circulation; +112 min. (Table II),"12,24 p. 100"
same,DC = Cerebral blood flow,brain blood circulation; +112 min. (Table II),"112,5 ml/mn"
same,G/O,brain blood circulation; +112 min. (Table II),"1,37"
same,O2 /min.,brain blood circulation; +112 min. (Table II),"9,74"
same,O2 cap. = amount of oxygen supplied to the brain tissues,brain blood circulation; +112 min. (Table II),"5,88"
same,PO2 vc = partial pressure of venous oxygen in the brain,brain blood circulation; +112 min. (Table II),"23,0"
same,art. QO2,brain blood circulation; +112 min. (Table II),"13,95"
same,art. pH,brain blood circulation; +112 min. (Table II),"7,44"
same,arterial Q gluc.,brain blood circulation; +112 min. (Table II),972 mg
same,consumption in Gluc./min.,brain blood circulation; +112 min. (Table II),"13,39"
same,ΔH^+/ΔQO2,brain blood circulation; +112 min. (Table II),"-7,39"
same,ΔPCO2/ΔQO2,brain blood circulation; +112 min. (Table II),"103,93"
same,ΔQO2,brain blood circulation; +112 min. (Table II),"+8,66"
same,CE p. 100 glucose,brain blood circulation; +135 min. (Table II),"12,84 p. 100"
same,DC = Cerebral blood flow,brain blood circulation; +135 min. (Table II),"92,0 ml/mn"
same,G/O,brain blood circulation; +135 min. (Table II),"1,28"
same,O2 /min.,brain blood circulation; +135 min. (Table II),"9,22"
same,O2 cap. = amount of oxygen supplied to the brain tissues,brain blood circulation; +135 min. (Table II),"6,33"
same,PO2 vc = partial pressure of venous oxygen in the brain,brain blood circulation; +135 min. (Table II),"19,75"
same,art. QO2,brain blood circulation; +135 min. (Table II),"14,18"
same,art. pH,brain blood circulation; +135 min. (Table II),"7,48"
same,arterial Q gluc.,brain blood circulation; +135 min. (Table II),997 mg
same,consumption in Gluc./min.,brain blood circulation; +135 min. (Table II),"11,78"
same,ΔH^+/ΔQO2,brain blood circulation; +135 min. (Table II),"-8,75"
same,ΔPCO2/ΔQO2,brain blood circulation; +135 min. (Table II),"129,74"
same,ΔQO2,brain blood circulation; +135 min. (Table II),"+10,02"
same,blood flow,brain blood circulation; conclusion,noticeable and extended over a large period of time increase
same,brain metabolism,brain blood circulation; conclusion,significant improvement
same,vasodilatory effect on the femoral blood flow,femoral blood flow,clear
same,Femoral vein flow,femoral blood flow; 45 minutes (Table I),"38,0"
same,Femoral vein flow,femoral blood flow; 67 minutes (Table I),"38,7"
same,Femoral vein flow,femoral blood flow; 90 minutes (Table I),"37,1"
same,Femoral vein flow,femoral blood flow; 112 minutes (Table I),"34,5"
same,Femoral vein flow,femoral blood flow; 135 minutes (Table I),"27,7"
same,effect on the central nervous system,central nervous system; dosage not stated,diphasic
same,effect on the central nervous system,central nervous system; higher dosages (20 to 40 mg/kg per os),sedative effect
same,effect on the central nervous system,central nervous system; higher dosages (dose not stated),sedative effects
same,effect on the central nervous system,central nervous system; low dosages,stimulating properties; also recorded: slight stimulating action
same,effect on the analgetic effect of Morphine,[1],increases the analgetic effect of Morphine
